We go through 13 compounds from patent publication US12624050B2, “Three fused ring derivative-containing salt or crystal form and pharmaceutical composition thereof” (Shanghai Hansoh Biomedical Co., Ltd., priority 2019, dated 2026).

One assay has as its target T1, PI3Kβ (Homo sapiens, UniProt P42338).
T1 construct: purchased Carna #11-102
Kind of assay: ADP-Glo Lipid Kinase Assay, PI3Kβ kinase activity. The assay is classed as biochemical. The conditions noted are these: ratio of IC50 values. The protocol: (§1) In this experiment, ADP-Glo Lipid Kinase Assay (Promega #V9102) from Promega was used. The lipid kinases PI3Kα/β/γ/δ catalyzed the ATP-to-ADP reaction in the presence of the substrate PIP2:3PS and ATP. The lipid kinase activity was characterized by measuring the ADP content in the reaction, and the half inhibition concentrations IC50 of the compounds on PI3Kα/β/γ/δ kinase activity were obtained.
(§2) Kinase reactions were carried out in white 384-well plates (Perkin Elmer #6007299). 2 μL of the compound of various concentrations diluted with ddH2O containing 1% DMSO was added to each well, and 2 μL of ddH2O containing 1% DMSO was added to positive control wells. Then 2 μL of 0.1 to 2 nM PI3K kinase solution diluted with 5× kinase buffer (HEPES 250 mM, MgCl2 15 mM, NaCl 250 mM, BSA 0.05%) was added to each well, and 2 μL of 5× kinase buffer was added to the negative control wells. 4 μL of 50 μM substrate PIP2:3PS (Promega #V1701) prepared with 10× Dilution buffer and ddH2O was added to all wells. Finally, 2 μL of 50 to 100 μM ATP solution diluted with water was added to start the reaction. After the reaction was carried out at room temperature for 90 to 120 minutes, 10 µL of ADP-Glo Reagent (containing 10 mM MgCl2) was added to each well, and the reaction was carried out at room temperature for 60 minutes to eliminate excess adenosine triphosphate (ATP) in the reaction. Then 20 μL of Kinase Detection Reagent was added to each well. After the reaction was carried out for 20 minutes at room temperature in the dark, the chemiluminescence was measured by BioTek Synergy H1 microplate reader.
(§3) The percentage inhibition data of the compound-treated well was calculated from positive control wells (DMSO control wells) and negative control wells (no kinase added) on the plate {% inhibition=100−[(test compound value−negative control value)]/(positive control value-negative control value)×100}. IC50 values were calculated using GraphPad prism and using a four-parameter nonlinear logistic formula to fit the data of different concentrations and corresponding percent inhibition.

In another assay the test system is HGC-27 (E542K). Nature of the assay: Proliferation inhibition of PI3Kα mutant cancer cells, Cell Titer-Glo, HGC-27. The conditions noted are these: Homo sapiens. The assay is classed as cell-based. The method, then:
(§4) The proliferation inhibitory effect of the compounds of the examples on the PI3Kα mutant cancer cell lines (HCC1954, HGC-27 and MKN1) was detected by Cell Titer-Glo method. Cell lines were cultured in RPMI 1640 medium (Gibco #22400089) containing 10% FBS (Gibco #10091148) and 1% P/S (Hyclone #SV30010) under the condition of 37° C. and 5% CO2. The cells were collected before the experiment, and the cell density was adjusted after cell counting. The cells were seeded in a white 96-well plate (Corning #3610) at a density of 1000 to 10000 cells/well, and incubated in an incubator at 37° C. and 5% CO2 overnight. The prepared compound solutions of different concentrations and the corresponding solvent controls were added to the plate. The plate was again incubated in an incubator at 37° C. and 5% CO2 for 48 to 96 hours. Then the cell plate and its contents were equilibrated to room temperature. 20 to 100 μL of Cell Titer-Glo solution (Promega #G7573) was added to each well, and the plate was shaken and mixed well, then incubated at room temperature for 5 to 30 minutes in the dark. The chemiluminescence was measured by a SynergyH1 microplate reader from BioTek.
(§5) The percentage inhibition data of the compound-treated well was calculated from solvent control wells on the plate {% inhibition=100−([…])×100}. IC50 values were calculated using GraphPad prism and using a four-parameter nonlinear logistic formula to fit the data of different concentrations and corresponding percent inhibition.
In general terms: ATP-based viability assays read luminescence as a measure of living cells.

Another assay deals with HCC1954 (H1047R). Kind of assay: Proliferation inhibition of PI3Kα mutant cancer cells, Cell Titer-Glo, HCC1954. In kind it is cell-based. The following applies: Homo sapiens. The protocol: as §4, §5
The target of a further assay is T2, PI3Kδ (Homo sapiens, UniProt O00329).
T2 construct: purchased Carna #11-103
T2 sequence (O00329 whole entry): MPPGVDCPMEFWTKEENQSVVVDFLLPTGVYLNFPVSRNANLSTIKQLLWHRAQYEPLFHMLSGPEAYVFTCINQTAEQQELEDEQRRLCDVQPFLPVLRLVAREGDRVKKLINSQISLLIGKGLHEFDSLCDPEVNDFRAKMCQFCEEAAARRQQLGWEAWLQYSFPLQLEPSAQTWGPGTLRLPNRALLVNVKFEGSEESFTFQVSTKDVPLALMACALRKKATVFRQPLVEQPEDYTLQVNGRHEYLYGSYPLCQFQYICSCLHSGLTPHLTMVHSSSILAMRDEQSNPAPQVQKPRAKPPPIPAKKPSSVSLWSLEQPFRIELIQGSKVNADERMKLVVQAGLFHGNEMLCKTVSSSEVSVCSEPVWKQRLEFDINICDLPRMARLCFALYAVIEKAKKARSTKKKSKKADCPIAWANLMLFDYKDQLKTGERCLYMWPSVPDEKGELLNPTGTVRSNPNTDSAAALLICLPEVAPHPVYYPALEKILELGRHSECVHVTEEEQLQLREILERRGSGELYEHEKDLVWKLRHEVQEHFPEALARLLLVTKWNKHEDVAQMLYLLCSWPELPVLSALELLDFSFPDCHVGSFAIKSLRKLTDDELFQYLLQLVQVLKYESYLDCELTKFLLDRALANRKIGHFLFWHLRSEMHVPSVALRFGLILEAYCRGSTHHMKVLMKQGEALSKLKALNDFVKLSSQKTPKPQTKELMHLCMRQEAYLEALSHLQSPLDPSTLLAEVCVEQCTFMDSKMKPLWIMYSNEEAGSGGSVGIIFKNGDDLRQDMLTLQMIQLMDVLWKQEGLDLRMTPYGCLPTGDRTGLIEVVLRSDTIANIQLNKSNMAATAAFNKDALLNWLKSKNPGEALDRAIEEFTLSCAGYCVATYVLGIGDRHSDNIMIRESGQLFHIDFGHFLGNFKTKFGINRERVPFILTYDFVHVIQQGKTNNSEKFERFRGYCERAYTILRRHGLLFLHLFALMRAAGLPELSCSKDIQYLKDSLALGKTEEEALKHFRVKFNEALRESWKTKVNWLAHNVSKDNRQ
T2 sequence (P27986 whole entry partner): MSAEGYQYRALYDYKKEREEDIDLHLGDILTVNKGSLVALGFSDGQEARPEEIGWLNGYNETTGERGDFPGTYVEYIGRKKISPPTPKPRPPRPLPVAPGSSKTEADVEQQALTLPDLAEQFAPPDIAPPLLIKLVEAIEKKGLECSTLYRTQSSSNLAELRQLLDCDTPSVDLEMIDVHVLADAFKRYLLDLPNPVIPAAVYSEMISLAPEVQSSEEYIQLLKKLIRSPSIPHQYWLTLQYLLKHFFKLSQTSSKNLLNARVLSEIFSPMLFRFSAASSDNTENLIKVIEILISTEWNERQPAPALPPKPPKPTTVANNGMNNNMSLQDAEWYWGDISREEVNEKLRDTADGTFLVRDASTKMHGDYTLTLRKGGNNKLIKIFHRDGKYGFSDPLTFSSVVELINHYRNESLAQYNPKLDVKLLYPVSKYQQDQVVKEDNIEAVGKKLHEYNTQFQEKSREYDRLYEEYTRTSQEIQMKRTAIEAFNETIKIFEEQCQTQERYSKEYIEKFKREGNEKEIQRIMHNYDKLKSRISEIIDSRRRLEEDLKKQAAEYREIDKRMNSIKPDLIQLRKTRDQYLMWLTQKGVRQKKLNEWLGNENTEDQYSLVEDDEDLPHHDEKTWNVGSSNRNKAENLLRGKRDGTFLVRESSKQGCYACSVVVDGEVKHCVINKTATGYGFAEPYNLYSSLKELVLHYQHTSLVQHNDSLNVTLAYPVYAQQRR
Nature of the assay: ADP-Glo Lipid Kinase Assay, PI3Kδ kinase activity. The following applies: ratio of IC50 values. The assay is classed as biochemical. The method, then: as §1, §2, §3

A further assay deals with T3, PI3Kγ (Homo sapiens, UniProt P48736).
T3 construct: purchased Thermofisher #PV4786
T3 sequence (P48736 whole entry): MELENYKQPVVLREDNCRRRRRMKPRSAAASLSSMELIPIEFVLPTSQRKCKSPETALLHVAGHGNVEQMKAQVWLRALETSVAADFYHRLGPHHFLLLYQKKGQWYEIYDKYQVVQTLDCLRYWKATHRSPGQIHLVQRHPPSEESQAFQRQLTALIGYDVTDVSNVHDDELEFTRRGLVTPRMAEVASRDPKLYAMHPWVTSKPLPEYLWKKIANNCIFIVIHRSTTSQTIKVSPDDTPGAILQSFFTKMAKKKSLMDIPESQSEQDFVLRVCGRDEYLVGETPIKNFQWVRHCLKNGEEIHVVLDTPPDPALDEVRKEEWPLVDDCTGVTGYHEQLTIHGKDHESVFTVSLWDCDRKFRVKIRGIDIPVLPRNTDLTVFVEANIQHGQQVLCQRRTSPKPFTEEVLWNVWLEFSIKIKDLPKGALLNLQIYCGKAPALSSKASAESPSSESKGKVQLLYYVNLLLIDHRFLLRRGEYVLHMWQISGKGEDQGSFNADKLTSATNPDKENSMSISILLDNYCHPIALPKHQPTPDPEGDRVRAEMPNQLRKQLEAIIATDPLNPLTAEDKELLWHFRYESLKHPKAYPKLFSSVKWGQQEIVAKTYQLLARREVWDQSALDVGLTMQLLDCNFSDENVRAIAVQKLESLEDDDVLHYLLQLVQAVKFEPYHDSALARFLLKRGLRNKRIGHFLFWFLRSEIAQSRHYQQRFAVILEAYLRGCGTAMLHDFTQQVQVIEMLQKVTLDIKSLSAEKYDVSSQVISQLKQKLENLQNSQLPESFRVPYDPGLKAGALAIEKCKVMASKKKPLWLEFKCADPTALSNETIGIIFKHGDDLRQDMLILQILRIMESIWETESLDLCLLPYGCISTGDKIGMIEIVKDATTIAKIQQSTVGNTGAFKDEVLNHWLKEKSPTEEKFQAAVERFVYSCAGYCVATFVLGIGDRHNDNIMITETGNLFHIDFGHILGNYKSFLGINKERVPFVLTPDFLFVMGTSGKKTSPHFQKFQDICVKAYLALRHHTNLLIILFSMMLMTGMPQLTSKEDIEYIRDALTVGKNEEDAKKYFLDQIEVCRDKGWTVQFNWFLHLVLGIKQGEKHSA
Nature of the assay: ADP-Glo Lipid Kinase Assay, PI3Kγ kinase activity. The conditions noted are these: ratio of IC50 values. The assay is classed as biochemical. The protocol:
as §1, §2, §3
A general note: ADP-Glo turns the ADP formed in a reaction into a luminescent signal.

A further assay deals with MKN1 (E545K). Nature of the assay: Proliferation inhibition of PI3Kα mutant cancer cells, Cell Titer-Glo, MKN1. In kind it is cell-based. The following applies: Homo sapiens, MKN-1. The method, then: as §4, §5

T1 sequence (P42338 whole entry): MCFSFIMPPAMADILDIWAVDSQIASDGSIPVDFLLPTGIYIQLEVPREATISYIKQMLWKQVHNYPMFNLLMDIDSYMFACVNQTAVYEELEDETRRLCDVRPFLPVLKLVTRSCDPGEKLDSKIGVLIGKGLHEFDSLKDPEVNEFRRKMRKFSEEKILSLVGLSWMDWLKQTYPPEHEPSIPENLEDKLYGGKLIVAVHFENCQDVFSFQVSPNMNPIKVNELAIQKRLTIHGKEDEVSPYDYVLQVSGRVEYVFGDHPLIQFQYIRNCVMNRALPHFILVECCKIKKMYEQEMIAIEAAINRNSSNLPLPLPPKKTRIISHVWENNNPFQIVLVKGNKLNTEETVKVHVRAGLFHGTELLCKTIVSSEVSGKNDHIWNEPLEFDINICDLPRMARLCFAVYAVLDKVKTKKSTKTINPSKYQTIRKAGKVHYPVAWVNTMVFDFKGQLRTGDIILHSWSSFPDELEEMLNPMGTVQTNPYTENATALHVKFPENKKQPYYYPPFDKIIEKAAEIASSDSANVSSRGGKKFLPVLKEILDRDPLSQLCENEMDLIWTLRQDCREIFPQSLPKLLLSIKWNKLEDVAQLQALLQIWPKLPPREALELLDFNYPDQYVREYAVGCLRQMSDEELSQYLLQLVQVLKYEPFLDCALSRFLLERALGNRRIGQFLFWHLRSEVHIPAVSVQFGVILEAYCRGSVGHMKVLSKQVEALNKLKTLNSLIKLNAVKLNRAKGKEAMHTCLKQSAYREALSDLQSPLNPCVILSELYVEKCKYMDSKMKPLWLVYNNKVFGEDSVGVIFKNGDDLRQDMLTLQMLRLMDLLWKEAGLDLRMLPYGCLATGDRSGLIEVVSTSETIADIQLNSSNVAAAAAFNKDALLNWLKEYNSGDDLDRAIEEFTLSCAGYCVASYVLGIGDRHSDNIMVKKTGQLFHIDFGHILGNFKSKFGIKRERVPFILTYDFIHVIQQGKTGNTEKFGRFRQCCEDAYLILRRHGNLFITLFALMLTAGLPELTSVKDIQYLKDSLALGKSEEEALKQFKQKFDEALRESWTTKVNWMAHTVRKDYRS
T1 sequence (P27986 whole entry partner): as the sequence (P27986 whole entry partner) above

For `CC(Nc1ccc2c(c1)OCCn1cc(N3C(=O)OC(C)[C@H]3C(F)F)nc1-2)C(N)=O` (stereo in doubt) [Example 26, (R)-2-((2-((4S,5R)-4-(difluoromethyl)-5-methyl-2-oxooxazolidin-3-yl)-5,6-dihydrobenzo[f]imidazo[1,2-d][1,4]oxazepin-9-yl)amino)propionamide], the “Selectivity of PI3Kα vs PI3Kβ” value on PI3Kβ worked out at 1101. For the same compound, the IC50 (in general, the point on the concentration scale where inhibition reaches its midpoint) in the assay with HGC-27 (E542K) came out at 325 nM; with HCC1954 (H1047R) it was 160 nM; in the assay with MKN1 (E545K) it was 508 nM. Moreover, on PI3Kδ, the “Selectivity of PI3Kα vs PI3Kδ” value is recorded as 125. In addition, the “Selectivity of PI3Kα vs PI3Kγ” value at PI3Kγ is on record as 214.
As to `C[C@H](Nc1ccc2c(c1)OCCn1c-2nc(N2C(=O)OC[C@H]2C(F)F)c1F)C(N)=O` [Example 1, (S)-2-((2-((S)-4-(difluoromethyl)-2-oxooxazolidin-3-yl)-3-fluoro-5,6-dihydrobenzo[f]imidazo[1,2-d][1,4]oxazepin-9-yl)amino)propionamide], the “Selectivity of PI3Kα vs PI3Kβ” value on PI3Kβ was greater than 1266. On PI3Kδ, the “Selectivity of PI3Kα vs PI3Kδ” value is on record as 177. Also, on PI3Kγ, the “Selectivity of PI3Kα vs PI3Kγ” value amounted to 226.
As for `CC(C)[C@H](Nc1ccc2c(c1)OCCn1cc(N3C(=O)OC[C@H]3C(F)F)nc1-2)C(N)=O` [Example 14, (S)-2-((2-((S)-4-(difluoromethyl)-2-oxooxazolidin-3-yl)-5,6-dihydrobenzo[f]imidazo[1,2-d][1,4]oxazepin-9-yl)amino)-3-methylbutanamide], on PI3Kβ, the “Selectivity of PI3Kα vs PI3Kβ” value amounted to 358. Moreover, the results for the IC50 with HGC-27 (E542K), in the assay on HCC1954 (H1047R) and in the assay with MKN1 (E545K) were 417 nM, 204 nM and 615 nM, respectively. The “Selectivity of PI3Kα vs PI3Kδ” value on PI3Kδ amounted to 103. Further, the “Selectivity of PI3Kα vs PI3Kγ” value at PI3Kγ stood at 112.
Consider `C[C@@H](C(N)=O)N(C)c1ccc2c(c1)OCCn1cc(N3C(=O)OC[C@H]3C(F)F)nc1-2` [Example 19, (S)-2-((2-((S)-4-(difluoromethyl)-2-oxooxazolidin-3-yl)-5,6-dihydrobenzo[f]imidazo[1,2-d][1,4]oxazepin-9-yl)(methyl)amino)propionamide], for which the “Selectivity of PI3Kα vs PI3Kβ” value at PI3Kβ is on record as 329. In addition, the values for the IC50 with HGC-27 (E542K), in the assay with HCC1954 (H1047R) and in the assay on MKN1 (E545K) were 169 nM, 112 nM and 214 nM, respectively. On PI3Kδ, the “Selectivity of PI3Kα vs PI3Kδ” value is 29. Moreover, on PI3Kγ, the “Selectivity of PI3Kα vs PI3Kγ” value is listed as 648.
Consider `NC(=O)[C@@H]1CCN1c1ccc2c(c1)OCCn1cc(N3C(=O)OC[C@H]3C(F)F)nc1-2` [Example 21, (S)-1-(2-((S)-4-(difluoromethyl)-2-oxooxazolidin-3-yl)-5,6-dihydrobenzo[f]imidazo[1,2-d][1,4]oxazepin-9-yl)azetidine-2-carboxamide], for which the IC50 amounted to 396 nM with HGC-27 (E542K), 205 nM with HCC1954 (H1047R) and 399 nM in the assay with MKN1 (E545K).
With `C[C@H](Nc1ccc2c(c1)OCCn1cc(N3C(=O)N(C)C[C@H]3C(F)F)nc1-2)C(N)=O` [Example 24, (S)-2-((2-((S)-5-(difluoromethyl)-3-methyl-2-oxoimidazolidin-1-yl)-5,6-dihydrobenzo[f]imidazo[1,2-d][1,4]oxazepin-9-yl)amino)propionamide], the “Selectivity of PI3Kα vs PI3Kβ” value on PI3Kβ is reported as 1238. For the same compound, at PI3Kδ, the “Selectivity of PI3Kα vs PI3Kδ” value is given as 75. In addition, the “Selectivity of PI3Kα vs PI3Kγ” value on PI3Kγ is 80.
On to `C[C@H](Nc1ccc2c(c1F)OCCn1cc(N3C(=O)OC[C@H]3C(F)F)nc1-2)C(N)=O` [Example 31, (S)-2-((2-((S)-4-(difluoromethyl)-2-oxooxazolidin-3-yl)-8-fluoro-5,6-dihydrobenzo[f]imidazo[1,2-d][1,4]oxazepin-9-yl)amino)propionamide], for which the “Selectivity of PI3Kα vs PI3Kβ” value on PI3Kβ is recorded as 178. Also, the IC50 stood at 499 nM in the assay on HGC-27 (E542K), 226 nM in the assay on HCC1954 (H1047R) and 653 nM with MKN1 (E545K). The “Selectivity of PI3Kα vs PI3Kδ” value at PI3Kδ is 59. For the same compound, the “Selectivity of PI3Kα vs PI3Kγ” value on PI3Kγ is listed as 87.
Regarding `C[C@H](Nc1cc(F)c2c(c1)OCCn1cc(N3C(=O)OC[C@H]3C(F)F)nc1-2)C(N)=O` [Example 32, (S)-2-((2-((S)-4-(difluoromethyl)-2-oxooxazolidin-3-yl)-11-fluoro-5,6-dihydrobenzo[f]imidazo[1,2-d][1,4]oxazepin-9-yl)amino)propionamide], the “Selectivity of PI3Kα vs PI3Kβ” value at PI3Kβ was 536. Also, on PI3Kδ, the “Selectivity of PI3Kα vs PI3Kδ” value is 88. The “Selectivity of PI3Kα vs PI3Kγ” value at PI3Kγ is given as 98.
In the case of `COC[C@H](Nc1ccc2c(c1)OCCn1cc(N3C(=O)OC[C@H]3C(F)F)nc1-2)C(N)=O` [Example 43, (S)-2-((2-((S)-4-(difluoromethyl)-2-oxooxazolidin-3-yl)-5,6-dihydrobenzo[f]imidazo[1,2-d][1,4]oxazepin-9-yl)amino)-3-methoxypropionamide], the results for the IC50 with HGC-27 (E542K), in the assay with HCC1954 (H1047R) and with MKN1 (E545K) were 531 nM, 222 nM and 368 nM, respectively.
Take `C[C@H](Nc1ccc2c(c1)OCCn1cc(N3C(=O)CC[C@H]3C(F)F)nc1-2)C(N)=O` [Example 46, (S)-2-((2-((S)-2-(difluoromethyl)-5-oxopyrrolidin-1-yl)-5,6-dihydrobenzo[f]imidazo[1,2-d][1,4]oxazepin-9-yl)amino)propionamide]: the “Selectivity of PI3Kα vs PI3Kβ” value on PI3Kβ turned out to be 785. For the same compound, the IC50 with HGC-27 (E542K) was determined as 186 nM; in the assay with HCC1954 (H1047R), 184 nM; in the assay on MKN1 (E545K), 268 nM. For the same compound, on PI3Kδ, the “Selectivity of PI3Kα vs PI3Kδ” value is recorded as 90. For the same compound, on PI3Kγ, the “Selectivity of PI3Kα vs PI3Kγ” value was determined as 243.
As for `COC[C@H](Nc1ccc2c(c1F)OCCn1cc(N3C(=O)SC[C@H]3C(F)F)nc1-2)C(N)=O` [Example 51, (S)-2-((2-((R)-4(difluoromethyl)-2-oxothiazolidin-3-yl)-8-fluoro-5,6-dihydrobenzo[f]imidazo[1,2-d][1,4]oxazepin-9-yl)amino)-3-methoxypropionamide], on PI3Kβ, the “Selectivity of PI3Kα vs PI3Kβ” value was found to be 157. Moreover, the figures for the IC50 in the assay with HGC-27 (E542K), in the assay on HCC1954 (H1047R) and with MKN1 (E545K) were 455 nM, 243 nM and 426 nM, respectively. At PI3Kδ, the “Selectivity of PI3Kα vs PI3Kδ” value is 51. In addition, the “Selectivity of PI3Kα vs PI3Kγ” value at PI3Kγ is given as 170.
For `NC(=O)[C@@H]1CCCN1c1ccc2c(c1)OCCn1cc(N3C(=O)SC[C@H]3C(F)F)nc1-2` [Example 53, (S)-1-(2-((R)-4-(difluoromethyl)-2-oxothiazolidin-3-yl)-5,6-dihydrobenzo[f]imidazo[1,2-d][1,4]oxazepin-9-yl)pyrrolidine-2-carboxamide], the “Selectivity of PI3Kα vs PI3Kβ” value at PI3Kβ was determined as 423. In addition, the IC50 with HGC-27 (E542K) stood at 77 nM; with HCC1954 (H1047R), 40 nM; in the assay with MKN1 (E545K), 66 nM. The “Selectivity of PI3Kα vs PI3Kδ” value at PI3Kδ amounted to 43. The “Selectivity of PI3Kα vs PI3Kγ” value at PI3Kγ was determined as 254.
Take `C[C@@H](C(N)=O)N(C)c1ccc2c(c1)OCCn1cc(N3C(=O)SC[C@H]3C(F)F)nc1-2` [Example 54, (S)-2-((2-((R)-4-(difluoromethyl)-2-oxothiazolidin-3-yl)-5,6-dihydrobenzo[f]imidazo[1,2-d][1,4]oxazepin-9-yl)(methyl)amino)propionamide]: on PI3Kβ, the “Selectivity of PI3Kα vs PI3Kβ” value was found to be 238. The values for the half-maximal inhibitory concentration (IC50) in the assay on HGC-27 (E542K), in the assay with HCC1954 (H1047R) and in the assay on MKN1 (E545K) were 32 nM, 29 nM and 42 nM, respectively. Further, the “Selectivity of PI3Kα vs PI3Kδ” value at PI3Kδ is given as 31. Besides, the “Selectivity of PI3Kα vs PI3Kγ” value at PI3Kγ stood at 217.
